Measurements reported in patent US9434763B2, “Derivatives of pyridinone as inhibitors for tissue transglutaminase” (ZEDIRA GMBH, priority 2012, dated 2016).

biological target: T1, His tagged recombinant human tissue transglutaminase (His6-rh-TG2) (Homo sapiens, UniProt P21980); assay: Inactivation of human tissue transglutaminase, fluorescence assay with Abz-APE(CAD-DNP)QEA-OH; format: biochemical; conditions: substrate Abz-APE(CAD-DNP)QEA-OH, 37° C., pH=7.5
T1 construct: purchased Zedira T002
T1 sequence (P21980 1-687): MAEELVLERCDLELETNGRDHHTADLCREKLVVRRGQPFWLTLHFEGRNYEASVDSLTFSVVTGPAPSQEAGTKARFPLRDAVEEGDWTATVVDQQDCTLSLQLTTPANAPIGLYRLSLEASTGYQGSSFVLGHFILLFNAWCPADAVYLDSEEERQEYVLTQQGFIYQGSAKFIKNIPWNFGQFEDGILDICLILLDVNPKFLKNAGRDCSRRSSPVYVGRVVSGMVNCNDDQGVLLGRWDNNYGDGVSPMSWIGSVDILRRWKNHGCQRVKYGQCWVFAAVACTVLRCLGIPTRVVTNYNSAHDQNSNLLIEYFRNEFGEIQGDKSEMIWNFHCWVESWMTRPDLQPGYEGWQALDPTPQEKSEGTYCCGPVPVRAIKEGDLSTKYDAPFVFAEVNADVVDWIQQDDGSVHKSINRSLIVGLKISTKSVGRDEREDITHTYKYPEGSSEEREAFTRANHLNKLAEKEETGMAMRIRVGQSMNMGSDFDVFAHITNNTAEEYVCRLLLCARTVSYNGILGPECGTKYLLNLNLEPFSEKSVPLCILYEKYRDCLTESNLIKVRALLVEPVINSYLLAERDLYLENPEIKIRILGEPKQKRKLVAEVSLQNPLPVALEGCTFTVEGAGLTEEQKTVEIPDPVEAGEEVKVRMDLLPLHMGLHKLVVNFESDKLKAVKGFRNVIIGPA
Description: General Method for Inactivation of Human Tissue Transglutaminase
250 μg lyophilized His tagged recombinant human tissue transglutaminase (His6-rh-TG2, Zedira product T002) are reconstituted by adding 150 μl water (resulting buffer 50 mM NaH2PO4, 150 mM NaCl, pH=8.0).
A 10 mM inhibitor stock solution in DMSO is prepared and is diluted with buffer (50 mM Tris-HCl, 10 mM CaCl2, 5 mM DTT, pH=7.5) each to the twentyfold of the concentration desired in the preparation (but at least 1/50 dilution resulting in a 2% DMSO concentration).
900 μl of an assay-solution consisting of 55.56 mM Tris, 11.11 mM CaCl2, 0.11% PEG8000, 5.56 mM DTT, 5.56 mM glycine methyl ester and 50 μM Abz-APE(CAD-DNP)QEA-OH, (Zedira product A102; patent No.: EP 1781807B1), pH=7.5 are added to a cuvette and heated in a measuring cell of a spectrophotometer to 37° C. 50 μl of the particular inhibitor solution are added to this solution (resulting in a concentration of less than 0.2% DMSO in the mixture).
7 μl of the transglutaminase solution reconstituted above are diluted with 51 μl buffer (50 mM Tris, 100 mM NaCl, 5 mM DTT, pH=7.5). 50 μl of this enzyme solution (10 μg His6-rhTG2) are added to the assay-solution containing the particular inhibitor concentration. It is incubated 5 min at 37° C. before measuring starts (λexc=313 nm and λem=418 nm, t=15 to 30 min).
The evaluation of the resulting enzyme activity is done using the slope of the straight line obtained by the increase in fluorescence.
To determine the non-inhibited enzyme activity, DMSO instead of inhibitor stock solution is used. IC50 values are determined by plotting the resulting enzyme activity against the logarithm of the inhibitor concentration. IC50 is defined as the concentration of inhibitor resulting in 50% of enzyme activity.

Structure (SMILES) | IC50
CCOC(=O)/C=C/CC[C@H](NC(=O)CCC(=O)O)C(=O)Nc1cccn(CC(=O)NCc2ccccc2C(F)(F)F)c1=O [A44, (S,E)-4-(7-Ethoxy-1,7-dioxo-1-(2-oxo-1-(2-oxo-2-(2-(trifluoromethyl)benzylamino)ethyl)-1,2-dihydropyridin-3-ylamino)hept-5-en-2-ylamino)-4-oxobutanoic acid] | 240 nM
CCOC(=O)/C=C/CC[C@H](NC(=O)CCC(=O)O)C(=O)Nc1cccn(CC(=O)N2CCC(C(F)(F)F)CC2)c1=O [A45, (S,E)-4-(7-Ethoxy-1,7-dioxo-1-(2-oxo-1-(2-oxo-2-(4-(trifluoromethyl)piperidin-1-yl)ethyl)-1,2-dihydropyridin-3-ylamino)hept-5-en-2-ylamino)-4-oxobutanoic acid] | 1230 nM
CCOC(=O)/C=C/CC[C@H](NC(C)=O)C(=O)Nc1cccn(CC(=O)NCCN2CCCC2)c1=O [A46, (S,E)-Ethyl 6-acetamido-7-oxo-7-(2-oxo-1-(2-oxo-2-(2-(pyrrolidin-1-yl)ethylamino)ethyl)-1,2-dihydropyridin-3-ylamino)hept-2-enoate] | 3300 nM
CCOC(=O)/C=C/CC[C@H](NC(=O)CCC(=O)O)C(=O)Nc1cccn(CC(=O)NCCN2CCNC2=O)c1=O [A49, (S,E)-4-(7-Ethoxy-1,7-dioxo-1-(2-oxo-1-(2-oxo-2-(2-(2-oxoimidazolidin-1-yl)ethylamino)ethyl)-1,2-dihydropyridin-3-ylamino)hept-5-en-2-ylamino)-4-oxobutanoic acid] | 1800 nM
CCOC(=O)/C=C/CC[C@H](NC(C)=O)C(=O)Nc1cccn(CC(=O)N2CCCC(C)C2)c1=O (stereo partly drawn) [A52, (6S,E)-Ethyl 6-acetamido-7-(1-(2-(3-methylpiperidin-1-yl)-2-oxoethyl)-2-oxo-1,2-dihydropyridin-3-ylamino)-7-oxohept-2-enoate] | 700 nM
CCOC(=O)/C=C/CC[C@H](NC(C)=O)C(=O)Nc1cccn(CC(=O)NCC(C)C)c1=O [A54, (S,E)-Ethyl 6-acetamido-7-(1-(2-(isobutylamino)-2-oxoethyl)-2-oxo-1,2-dihydropyridin-3-ylamino)-7-oxohept-2-enoate] | 191 nM
CCOC(=O)/C=C/CC[C@H](NC(C)=O)C(=O)Nc1cccn(CC(=O)NC(C)C(C)C)c1=O (stereo partly drawn) [A55, (6S,E)-Ethyl 6-acetamido-7-(1-(2-(3-methylbutan-2-ylamino)-2-oxoethyl)-2-oxo-1,2-dihydropyridin-3-ylamino)-7-oxohept-2-enoate] | 153 nM
CCOC(=O)/C=C/CC[C@H](NC(C)=O)C(=O)Nc1cccn(CC(=O)N[C@H](C(=O)OC)C(C)C)c1=O [A57, (S,E)-Ethyl 6-acetamido-7-(1-(2-((S)-1-methoxy-3-methyl-1-oxobutan-2-ylamino)-2-oxoethyl)-2-oxo-1,2-dihydropyridin-3-ylamino)-7-oxohept-2-enoate] | 84 nM
COC(=O)/C=C/CC[C@H](NC(C)=O)C(=O)Nc1cccn(CC(=O)N2CCCC(C(F)(F)F)C2)c1=O (stereo partly drawn) [A66, (6S,E)-Methyl 6-acetamido-7-oxo-7-(2-oxo-1-(2-oxo-2-(3-(trifluoromethyl)piperidin-1-yl)ethyl)-1,2-dihydropyridin-3-ylamino)hept-2-enoate] | 310 nM
CCC(CC)CNC(=O)Cn1cccc(NC(=O)[C@H](CC/C=C/C(=O)OC)NC(=O)C(C)N)c1=O (stereo partly drawn) [A68, (6S,E)-Methyl 6-(2-aminopropanamido)-7-(1-(2-(2-ethylbutylamino)-2-oxoethyl)-2-oxo-1,2-dihydropyridin-3-ylamino)-7-oxohept-2-enoate 2,2,2-trifluoroacetate] | 53 nM
CCC(CC)CNC(=O)Cn1cccc(NC(=O)[C@H](CC/C=C/C(=O)OC)NC(=O)CN)c1=O [A69, (S,E)-Methyl 6-(2-aminoacetamido)-7-(1-(2-(2-ethybutylamino)-2-oxoethyl)-2-oxo-1,2-dihydropyridin-3-ylamino)-7-oxohept-2-enoate 2,2,2-trifluoroacetate] | 71 nM
CCC(CC)CNC(=O)Cn1cccc(NC(=O)[C@H](CC/C=C/C(=O)OC)NC(=O)c2ccccc2N)c1=O [A70, (S,E)-Methyl 6-(2-aminobenzamido)-7-(1-(2-(2-ethylbutylamino)-2-oxoethyl)-2-oxo-1,2-dihydropyridin-3-ylamino)-7-oxohept-2-enoate 2,2,2-trifluoroacetate] | 81 nM
CCC(CC)CNC(=O)Cn1cccc(NC(=O)[C@H](CC/C=C/C(=O)OC)NC(=O)c2ccc3c(c2)C(=O)OC32c3ccc(N(C)C)cc3Oc3cc(N(C)C)ccc32)c1=O [A71, (S,E)-Methyl 6-(3′,6′-bis(dimethylamino)-3-oxo-3H-spiro[isobenzofuran-1,9′-xanthene]-5-ylcarboxamido)-7-(1-(2-(2-ethylbutylamino)-2-oxoethyl)-2-oxo-1,2-dihydropyridin-3-ylamino)-7-oxohept-2-enoate] | 97 nM

Next, values leading:

IC50 | Structure (SMILES)
166 nM | CCOC(=O)/C=C/CC[C@H](NC(=O)CCC(=O)O)C(=O)Nc1cccn(CC(=O)N[C@@H](CC(C)(C)C)C(=O)OC)c1=O [A41, 4-((S,E)-7-Ethoxy-1-(1-(2-((S)-1-methoxy-4,4-dimethyl-1-oxopentan-2-ylamino)-2-oxoethyl)-2-oxo-1,2-dihydropyridin-3-ylamino)-1,7-dioxohept-5-en-2-ylamino)-4-oxobutanoic acid]
145 nM | CCOC(=O)/C=C/CC[C@H](NC(=O)CCC(=O)O)C(=O)Nc1cccn(CC(=O)NCCC(CC)CC)c1=O [A43, (S,E)-4-(7-Ethoxy-1-(1-(2-(3-ethylpentylamino)-2-oxoethyl)-2-oxo-1,2-dihydropyridin-3-ylamino)-1,7-dioxohept-5-en-2-ylamino)-4-oxobutanoic acid]
480 nM | CCOC(=O)/C=C/CC[C@H](NC(=O)CCC(=O)O)C(=O)Nc1cccn(CC(=O)NCCc2cccs2)c1=O [A47, (S,E)-4-(7-Ethoxy-1,7-dioxo-1-(2-oxo-1-(2-oxo-2-(2-(thiophen-2-yl)ethylamino)ethyl)-1,2-dihydropyridin-3-ylamino)hept-5-en-2-ylamino)-4-oxobutanoic acid]
1700 nM | CCOC(=O)/C=C/CC[C@H](NC(C)=O)C(=O)Nc1cccn(CC(=O)NCC2CCN(CC)CC2)c1=O [A48, (S,E)-Ethyl 6-acetamido-7-(1-(2-((1-ethylpiperidin-4-yl)methylamino)-2-oxoethyl)-2-oxo-1,2-dihydropyridin-3-ylamino)-7-oxohept-2-enoate]
119 nM | CCOC(=O)/C=C/CC[C@H](NC(C)=O)C(=O)Nc1cccn(CC(=O)NCC(C)CC)c1=O (stereo partly drawn) [A50, (6S,E)-Ethyl 6-acetamido-7-(1-(2-(2-methylbutylamino)-2-oxoethyl)-2-oxo-1,2-dihydropyridin-3-ylamino)-7-oxohept-2-enoate]
166 nM | CCOC(=O)/C=C/CC[C@H](NC(=O)CCC(=O)O)C(=O)Nc1cccn(CC(=O)NCC(C)CC)c1=O (stereo partly drawn) [A51, 4-((2S,E)-7-Ethoxy-1-(1-(2-(2-methylbutylamino)-2-oxoethyl)-2-oxo-1,2-dihydropyridin-3-ylamino)-1,7-dioxohept-5-en-2-ylamino)-4-oxobutanoic acid]
139 nM | CCOC(=O)/C=C/CC[C@H](NC(=O)CCNC(N)=O)C(=O)Nc1cccn(CC(=O)NCCC(C)C)c1=O [A56, (S,E)-Ethyl 7-(1-(2-(isopentylamino)-2-oxoethyl)-2-oxo-1,2-dihydropyridin-3-ylamino)-7-oxo-6-(3-ureidopropanamido)hept-2-enoate]
55 nM | CCC(CC)CNC(=O)Cn1cccc(NC(=O)[C@H](CC/C=C/C(=O)OC)NC(=O)c2cccnc2)c1=O [A67, (S,E)-Methyl 7-(1-(2-(2-ethylbutylamino)-2-oxoethyl)-2-oxo-1,2-dihydropyridin-3-ylamino)-6-(nicotinamido)-7-oxohept-2-enoate]
